Data from publication PMC6277767, “Broad and Region-Specific Impacts of the Synthetic Cannabinoid CP 55,940 in Adolescent and Adult Female Mouse Brains” (Frontiers in Molecular Neuroscience, 2018).

Tested on: CD1 female mouse brain lipidome
Experiment: Brain-region lipid levels (HPLC/MS/MS lipidomics) 2 h after single i.p. 3 mg/kg CP 55,940 vs vehicle
Type: in vivo
Parameters: N-arachidonoyl phenylalanine level, Mean / N-stearoyl tryptophan level, Mean / N-stearoyl proline level, Mean / N-stearoyl leucine level, Mean / N-stearoyl phenylalanine level, Mean / N-stearoyl serine level, Mean / N-stearoyl methionine level, Mean: unit: moles per gram
Description: The Bloomington Institutional Animal Care and Use Committee of Indiana University reviewed and approved the animal procedures. Female mice from the CD1 strain were utilized to match our study examining THC’s effects on the brain lipidome ([Leishman et al., 2018]). Mice were given a single i.p. injection of either 3 mg/kg CP or 1:1:18 cremophor:ethanol:saline vehicle (please refer to the section “3 mg/kg CP Is Relevant for Synthetic Cannabinoid Abuse and Has Stronger Effects on the Female Mouse Brain Lipidome During Adolescence” for a justification of dose and use of female mice). Three different age groups were given injections: PND 35 and PND 50 adolescents, and adult mice (PND 113). At least eight mice in each age group received CP and at least eight received vehicle. Matching the THC study time course ([Leishman et al., 2018]), mice were sacrificed via rapid decapitation 2 h after injection. Brains were immediately removed and flash-frozen in liquid nitrogen, and then stored at -80°C until dissections were performed. Brains were dissected on an ice-cold dissection plate into the following regions: STR, HIPP, CER, THAL, CTX, HYP, MID, and STEM. These abbreviations for these brain areas will be used exclusively when discussing the results generated by these specific dissections. Each dissected area was immediately placed in liquid nitrogen and then stored at -80°C until used for lipid extraction.
Tissue extracts were performed as previously described ([Bradshaw et al., 2006]; [Stuart et al., 2013]; [Raboune et al., 2014]; [Leishman et al., 2016a],[b], [2017], [2018]). First, samples were shock frozen in liquid nitrogen, weighed, and transferred to a centrifuge tube. The mass of the largest sample was multiplied by 50 to determine how many milliliters of HPLC-grade methanol (Fisher, Fair Lawn, NJ, United States) to add. Then, samples were spiked with 500 pmol deuterium-labeled NAGly (d8NAGly; Cayman Chemical, Ann Arbor, MI, United States). Samples were placed on ice in darkness for 2 h then individually homogenized and centrifuged at 19,000 × g for 20 min at 20°C. Supernatants were diluted with HPLC water (purified in house) to make a solution of 75% water, 25% supernatant. Lipids were partially purified on C18 solid phase extraction columns (Agilent, Palo Alto, CA, United States). A series of four elutions with 1.5 mL of 60%, 75%, 85%, and 100% methanol were collected ([Stuart et al., 2013]; [Leishman et al., 2016a],[b], [2018]).
As previously described ([Bradshaw et al., 2006]; [Tan et al., 2006]; [Smoum et al., 2010]; [Stuart et al., 2013]; [Tortoriello et al., 2013]; [Raboune et al., 2014]; [Leishman et al., 2016a],[b], [2017], [2018]), samples were analyzed using an Applied Biosystems API 3000 triple quadrupole mass spectrometer with electrospray ionization (Foster City, CA, United States). Using an Agilent XDB-C18 reversed phase analytical column and optimized mobile phase gradients, 20 μL from each elution were chromatographed. Two Shimadzu 10ADvp pumps (Columbia, MD, United States) provided the pressure for gradient elution. Mobile phase A: 20% methanol, 80% water (v/v) and 1 mM ammonium acetate (Sigma, St. Louis, MO, United States). Mobile phase B: 100% methanol, 1 mM ammonium acetate. Every method run began with 0% mobile phase B, reached 100% mobile phase B flowing at 0.2 mL/min, and gradually returned to 0% mobile phase B.
This screening library will be referred to as the lipidome when discussing data from this study. HPLC/MS/MS data were analyzed using Analyst software (Applied Biosystems) ([Bradshaw et al., 2006]; [Tan et al., 2006]; [Stuart et al., 2013]; [Tortoriello et al., 2013]; [Raboune et al., 2014]; [Leishman et al., 2016a],[b], [2017], [2018]). Chromatograms (Supplementary Figure 3) were generated by determining the retention time of analytes from the analytical column with a [M-1] or [M+1] parent peak and a fragmentation peak corresponding to the programmed values. […]

[1] = brainstem, PND 50, 3 mg/kg CP 55,940, one-way ANOVA p .062
[2] = brainstem, PND35 WT female mice, 3 mg/kg
[3] = cerebellum, PND 50, 3 mg/kg CP 55,940
[4] = cerebellum, PND 50 female mice, 3 mg/kg CP 55,940

Q: Which results are given for `CCCCCCC(C)(C)c1ccc([C@@H]2C[C@H](O)CC[C@H]2CCCO)c(O)c1` [CP 55,940]?
A: 2-oleoyl glycerol, Magnitude (x Veh level) (brainstem, PND 50, 3 mg/kg CP 55,940, one-way ANOVA p .046): 0.86 x Veh level; 2-palmitoyl glycerol, Direction (relative to Veh) [1]: ↓; 2-palmitoyl glycerol, Magnitude (x Veh level) [1]: 0.71 x Veh level; N-arachidonoyl GABA level, Mean [2]: 8.01E-12; N-arachidonoyl alanine level, Mean [2]: 6.76E-12; N-arachidonoyl ethanolamine level, Mean [2]: 2.09E-11; N-arachidonoyl glycine level, Mean [2]: 4.63E-11; N-arachidonoyl methionine level, Mean [2]: 8.72E-13; N-arachidonoyl phenylalanine level, Mean [2]: 9.69E-13; N-docosahexaenoyl GABA level, Mean [2]: 2.13E-12; N-docosahexaenoyl alanine level, Mean [2]: 4.95E-12; N-docosahexaenoyl ethanolamine level, Mean [2]: 4.42E-11; N-docosahexaenoyl glycine level, Mean [2]: 2.18E-11; N-docosahexaenoyl leucine level, Mean [2]: 5.85E-13; N-docosahexaenoyl phenylalanine level, Mean [2]: 8.51E-13; N-linoleoyl GABA level, Mean [2]: 8E-13; N-linoleoyl alanine level, Mean [2]: 1.32E-12; N-linoleoyl ethanolamine level, Mean [2]: 3.37E-11; N-linoleoyl glycine level, Mean [2]: 5.99E-12; N-linoleoyl leucine level, Mean [2]: 3.47E-13; N-oleoyl GABA level, Mean [2]: 4.65E-12; N-oleoyl alanine level, Mean [2]: 7.64E-12; N-oleoyl ethanolamine level, Mean [2]: 2.04E-10; N-oleoyl glycine level, Mean [2]: 2.66E-11; N-oleoyl leucine level, Mean [2]: 1.35E-12; N-oleoyl methionine level, Mean [2]: 1.16E-12; N-oleoyl phenylalanine level, Mean [2]: 1.05E-12; N-palmitoyl GABA level, Mean [2]: 7.63E-12; N-palmitoyl alanine level, Mean [2]: 8.91E-12; N-palmitoyl ethanolamine level, Mean [2]: 1.31E-10; N-palmitoyl glycine level, Mean [2]: 4.17E-11; N-palmitoyl leucine level, Mean [2]: 2.63E-12; N-palmitoyl methionine level, Mean [2]: 1.43E-12; N-palmitoyl phenylalanine level, Mean [2]: 2.02E-12; N-stearoyl GABA level, Mean [2]: 6.98E-12; N-stearoyl alanine level, Mean [2]: 1.31E-11; N-stearoyl ethanolamine level, Mean [2]: 3.25E-11; N-stearoyl glycine level, Mean [2]: 2.18E-11; N-stearoyl leucine level, Mean [2]: 8.28E-13; N-stearoyl methionine level, Mean [2]: 1.7E-12; N-stearoyl phenylalanine level, Mean [2]: 1.48E-12; 2-linoleoyl glycerol: Direction (relative to Veh) [3]: ↓; 2-linoleoyl glycerol: Magnitude (x Veh level) [3]: 0.65 x Veh level; 2-oleoyl glycerol: Direction (relative to Veh) [3]: ↓; 2-oleoyl glycerol: Magnitude (x Veh level) [3]: 0.77 x Veh level; 2-palmitoyl glycerol: Direction (relative to Veh) [3]: ↓; 2-palmitoyl glycerol: Magnitude (x Veh level) [3]: 0.69 x Veh level; 6-ketoPGF1α: Direction (relative to Veh) [3]: ↑; 6-ketoPGF1α: Magnitude (x Veh level) [3]: 1.33 x Veh level; Arachidonic acid: Direction (relative to Veh) [3]: ↓; Arachidonic acid: Magnitude (x Veh level) [3]: 0.74 x Veh level; Linoleic acid: Direction (relative to Veh) [3]: ↓; Linoleic acid: Magnitude (x Veh level) [3]: 0.73 x Veh level; N-arachidonoyl GABA: Direction (relative to Veh) [3]: ↓; N-arachidonoyl GABA: Magnitude (x Veh level) [3]: 0.75 x Veh level; N-arachidonoyl ethanolamine: Direction (relative to Veh) [3]: ↓; N-arachidonoyl ethanolamine: Magnitude (x Veh level) [3]: 0.81 x Veh level; N-arachidonoyl glycine: Direction (relative to Veh) [3]: ↓; N-arachidonoyl glycine: Magnitude (x Veh level) [3]: 0.68 x Veh level; N-arachidonoyl phenylalanine: Direction (relative to Veh) [3]: ↓; N-arachidonoyl phenylalanine: Magnitude (x Veh level) [3]: 0.60 x Veh level; N-arachidonoyl serine: Direction (relative to Veh) [3]: ↓; N-arachidonoyl serine: Magnitude (x Veh level) [3]: 0.78 x Veh level; N-arachidonoyl taurine: Direction (relative to Veh) [3]: ↓; N-arachidonoyl taurine: Magnitude (x Veh level) [3]: 0.83 x Veh level; N-arachidonoyl tyrosine: Direction (relative to Veh) [3]: ↓; N-arachidonoyl tyrosine: Magnitude (x Veh level) [3]: 0.73 x Veh level; N-docosahexaenoyl phenylalanine: Direction (relative to Veh) [3]: ↓; N-docosahexaenoyl phenylalanine: Magnitude (x Veh level) [3]: 0.77 x Veh level; N-linoleoyl ethanolamine: Direction (relative to Veh) [3]: ↓; N-linoleoyl ethanolamine: Magnitude (x Veh level) [3]: 0.77 x Veh level; N-oleoyl GABA: Direction (relative to Veh) [3]: ↓; N-oleoyl GABA: Magnitude (x Veh level) [3]: 0.76 x Veh level; N-oleoyl ethanolamine: Direction (relative to Veh) [3]: ↓; N-oleoyl ethanolamine: Magnitude (x Veh level) [3]: 0.85 x Veh level; N-oleoyl phenylalanine: Direction (relative to Veh) [3]: ↑; N-oleoyl phenylalanine: Magnitude (x Veh level) [3]: 1.26 x Veh level; N-palmitoyl leucine: Direction (relative to Veh) [3]: ↑; N-palmitoyl leucine: Magnitude (x Veh level) [3]: 1.63 x Veh level; N-palmitoyl valine: Direction (relative to Veh) [3]: ↑; N-palmitoyl valine: Magnitude (x Veh level) [3]: 1.49 x Veh level; Oleic acid: Direction (relative to Veh) [3]: ↓; Oleic acid: Magnitude (x Veh level) [3]: 0.83 x Veh level; PGE2: Direction (relative to Veh) [3]: ↓; PGE2: Magnitude (x Veh level) [3]: 0.68 x Veh level; PGF2α: Direction (relative to Veh) [3]: ↓; PGF2α: Magnitude (x Veh level) [3]: 0.72 x Veh level; 2-arachidonoyl glycerol level, Mean [4]: 1.99E-10; 2-linoleoyl glycerol level, Mean [4]: 1.45E-10; 2-oleoyl glycerol level, Mean [4]: 1.49E-09; 2-palmitoyl glycerol level, Mean [4]: 1.57E-09; 6-ketoPGF1α level, Mean [4]: 6.52E-12; 11-OH-THC level, Mean [4]: BDL; 11-nor-9-carboxyTHC level, Mean [4]: BDL; Arachidonic acid level, Mean [4]: 1.8E-10; Cannabidiol level, Mean [4]: BDL; Linoleic acid level, Mean [4]: 1.87E-10; N- stearoyl valine level, Mean [4]: 9.25E-14; N-arachidonoyl GABA level, Mean [4]: 3.92E-12; N-arachidonoyl dopamine level, Mean [4]: BDL; N-arachidonoyl ethanolamine level, Mean [4]: 2.25E-11; N-arachidonoyl glycine level, Mean [4]: 1.1E-12
